The values that follow come from US11185552B2, “Inhibitors of glucose-6-phosphate dehydrogenase for treating cardiovascular and pulmonary conditions” (ICHOR, LLC., priority 2016, dated 2021).

For assay [1], the system named is Bovine pulmonary arteries. The assay is described as follows: Smooth muscle protein expression in bovine pulmonary arteries incubated in Krebs buffer. The conditions noted are these: 12 hr. How it is done:
FIGS. 3A and 3B are graphs showing results for bovine pulmonary arteries that were incubated in Krebs buffer with and without G6PD inhibitor PD2958 (2958) and PD2124 (2124) for 12 hr. Vascular smooth cell-specific protein myocardin (MYOCD; FIG. 3A) and smooth muscle myosin heavy chain (MHY11; FIG. 3B) expression was increased by PD2958 (10 microM) and PD2124 (1 microM).
Bovine pulmonary arteries were incubated in Krebs buffer with and without G6PD inhibitor PD2958 (2958) and PD2124 (2124) for 12 hr. Vascular smooth cell-specific protein myocardin (MYOCD) and smooth muscle myosin heavy chain (MHY11) expression was increased by PD2958 (10 microM) and PD2124 (1 microM) (FIGS. 3A and 3B).

Assay [2] deals with Rat pulmonary artery smooth muscle cells. The assay is described as follows: Cell migration. It counts as cell-based. The conditions noted are these: 1 microM, 72 hr, N=5. How it is done:
FIGS. 5A and 5B are images (FIG. 5A) and a graph (FIG. 5B) showing rat pulmonary artery smooth muscle cells that were cultured in 15% DMEM media for 48 hr and cells were treated with newly synthesized G6PD drugs; PD2958 (2958) or vehicle control (Con) for 72 hr. Cells migration was determined. Cell migration was abrogated by PD2958 (1 microM). N=5 in each group.
Rat pulmonary artery smooth muscle cells were cultured in 15% DMEM media for 48 hr and cells were treated with newly synthesized G6PD drugs; PD2958 (2958) or vehicle control (Con) for 72 hr. Cells migration was determined. Cell migration was abrogated by PD2958 (1 microM). N=5 in each group (FIGS. 5A and 5B).

For assay [3], the system named is Aortic rings of wild-type mice. The assay is described as follows: Relaxation of KCl pre-contracted aortic rings, wild-type mice. The conditions noted are these: KCl (30 mM). On the procedure: (§1) FIG. 7 is a graph showing aortic rings of wild-type and G6PD-deficient pre-contracted with KCl (30 mM).
(§2) Aortic rings of wild-type and G6PD-deficient pre-contracted with KCl (30 mM).

For assay [4], the system named is Rat pulmonary artery smooth muscle cells. The assay is described as follows: Cell number/proliferation by Cyquant assay. It counts as cell-based. Conditions: 72 hr treatment, versus vehicle control. On the procedure: (§3) FIGS. 4A and 4B are graphs showing results for rat pulmonary artery smooth muscle cells that were cultured in 15% DMEM media for 48 hr and cells were treated with newly synthesized G6PD drugs; PD109 (109), PD2124 (2124), PD2958 (2958) and PD4091 (4091) or vehicle control (Con) for 72 hr. Cell number/proliferation (FIG. 4A) and apoptosis (FIG. 4B) was determined by Cyquant and Caspase3/7 assay, respectively. Cell numbers were decreased by G6PD inhibitors (FIG. 4A). Cell apoptosis was increased by PD2958 (1 microM) N=5 in each group (FIG. 4B).
(§4) Rat pulmonary artery smooth muscle cells were cultured in 15% DMEM media for 48 hr and cells were treated with newly synthesized G6PD drugs; PD109 (109), PD2124 (2124), PD2958 (2958) and PD4091 (4091) or vehicle control (Con) for 72 hr. Cell number/proliferation and apoptosis was determined by Cyquant and Caspase3/7 assay, respectively. Cell numbers were decreased by G6PD inhibitors. Cell apoptosis was increased by PD2958 (1 microM) N=5 in each group (FIGS. 4A and 4B).

The test system of assay [5] is Bovine pulmonary artery rings. In words: Relaxation of KCl pre-contracted bovine pulmonary artery rings. Conditions: pre-contracted with KCl (30 mM), Krebs buffer. On the procedure: FIG. 6 is a graph showing bovine pulmonary artery rings that were incubated in Krebs buffer and pre-contracted with KCl (30 mM). These pre-contracted rings relaxed by G6PD inhibitors; PD109 (109), PD2124 (2124), PD2958 (2958) and PD4091 (4091) or dehydroepiandrosterone (DHEA).
Bovine pulmonary artery rings were incubated in Krebs buffer and pre-contracted with KCl (30 mM). These pre-contracted rings relaxed by G6PD inhibitors; PD109 (109), PD2124 (2124), PD2958 (2958) and PD4091 (4091) or dehydroepiandrosterone (DHEA) (FIG. 6).

Assay [6] concerns Aortic rings of G6PD-deficient mice. In words: Relaxation of KCl pre-contracted aortic rings, G6PD-deficient mice. The conditions noted are these: KCl (30 mM). How it is done: as §1, §2
The target in a further assay is G6PD (Homo sapiens, UniProt P11413). The assay is described as follows: G6PD activity inhibition (enzyme assay).
The test system of assay [7] is Rat pulmonary artery smooth muscle cells. In words: Apoptosis by Caspase3/7 assay. The conditions noted are these: 1 microM, 72 hr, N=5. The assay is classed as cell-based. How it is done: as §3, §4
Assay [8] has as its system mice with pulmonary hypertension. The assay is described as follows: Hypoxia (10% O2) pulmonary hypertension in mice. The assay is classed as in vivo. The conditions noted are these: S.C. 1.3 mg/Kg for 1 wk from wk 4 to wk 5, 10% O2. On the procedure: Placebo and 2124 were injected S.C. (1.3 mg/Kg) for 1 wk from wk 4 to wk 5.

Structures are written as SMILES.

Chain of G6PD (P11413 whole entry): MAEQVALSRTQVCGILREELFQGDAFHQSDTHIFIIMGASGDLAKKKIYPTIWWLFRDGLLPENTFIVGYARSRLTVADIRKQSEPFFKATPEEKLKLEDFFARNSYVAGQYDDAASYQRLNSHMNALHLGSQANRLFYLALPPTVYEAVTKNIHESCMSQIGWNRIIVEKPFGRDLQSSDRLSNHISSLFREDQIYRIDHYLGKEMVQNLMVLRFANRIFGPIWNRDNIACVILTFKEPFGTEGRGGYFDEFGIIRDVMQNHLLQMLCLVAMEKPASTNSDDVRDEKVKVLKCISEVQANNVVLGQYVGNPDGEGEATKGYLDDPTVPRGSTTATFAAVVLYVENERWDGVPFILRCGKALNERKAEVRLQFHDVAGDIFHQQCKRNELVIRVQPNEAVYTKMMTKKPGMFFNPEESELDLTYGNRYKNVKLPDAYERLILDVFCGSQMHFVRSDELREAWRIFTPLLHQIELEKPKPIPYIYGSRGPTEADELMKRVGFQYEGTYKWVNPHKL

As to `CCNC(=O)N[C@H]1CC[C@@]2(C)[C@@H](CC[C@@H]3[C@@H]2CC[C@]2(C)C(=O)CC[C@@H]32)C1` [PD2958, N-Ethyl-N′-[(3β,5α)-17-oxoandrostan-3-yl]urea], in assay [1] (10 microM), the “myocardin (MYOCD) expression” value is “increased” and the “smooth muscle myosin heavy chain (MHY11) expression” value was “increased”. Further, in [2], the Cell migration result is on record as “abrogated”. Further, the “relaxation of pre-contracted aortic rings” value in assay [3] is on record as “relaxed in dose-dependent manner”. In addition, the Cell number/proliferation result in assay [4] is listed as “decreased”. Also, the “relaxation of pre-contracted pulmonary artery rings” value in assay [5] was “relaxed”. In addition, in [6], the “relaxation of pre-contracted aortic rings” value is listed as “not G6PD-deficient mice were relaxed”. Moreover, the IC50 on G6PD is 1 to 10 µM. The Cell apoptosis entry in [7] is listed as “increased”.
Take `C[C@]12CC[C@H](O)CC1=CC[C@@H]1[C@@H]2CC[C@]2(C)C(=O)CC[C@@H]12` [PD109, 5-Androsten-3-beta-hydroxy-17-one (Dehydroepiandrosterone), reference compound]: the Cell number/proliferation entry in assay [4] is listed as “decreased”. Besides, the “relaxation of pre-contracted pulmonary artery rings” value in assay [5] is on record as “relaxed”.
On to `C[C@]12CC[C@H](O)C[C@@H]1CC[C@@H]1[C@@H]2CC[C@]2(C)[C@@H](C(=O)CO)CC[C@@H]12` [PD2124, (3β,5α)-3,21-Dihydroxypregnan-20-one], for which, in assay [1] (1 microM), the “myocardin (MYOCD) expression” value is reported as “increased” and the “smooth muscle myosin heavy chain (MHY11) expression” value is reported as “increased”. The Cell number/proliferation entry in [4] was “decreased”. For the same compound, in [8], the TPR entry was “reduced and reversed”; the arterial elastance result is “reduced and reversed”; the cardiac index result is “increased”; the “left ventricle (LV) stiffness” value was “reduced and reversed”. Also, the “pulmonary resistance determined as PAAT-to-ET ratio” value in assay [8] was “reduced and reversed”. Also, in assay [5], the “relaxation of pre-contracted pulmonary artery rings” value is recorded as “relaxed”. Further, on G6PD, the half-inhibitory concentration (IC50) lay within 1 to 10 µM.
As to `CC(=O)[C@H]1CC[C@H]2[C@@H]3CC[C@H]4C[C@@H](NS(C)(=O)=O)CC[C@]4(C)[C@H]3CC[C@]12C` [PD4091, N-[(3β,5α)-20-Oxopregnan-3-yl]methanesulfonamide], the 50% inhibitory concentration (IC50) against G6PD is 1 to 10 µM.
